Reference: patent US6737383B1, “Herbicidal oxadiazolidines” (priority 1999, dated 2004)

Legend:
[1] = test system: bedstraw; assay: Test B pre/postemergence bedstraw; assay type: in vivo, Galium aparine
Method in brief: (§1)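 Herbicidal effect was estimated by eye on a ten-point control scale after plants spent twelve to sixteen days in a greenhouse following soil or foliar treatment. Foliar sprays targeted plants at one to four leaves; all doses were formulated in a non-phytotoxic solvent with surfactant.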

[2] = test system: blackgrass; assay: Test B pre/postemergence blackgrass; assay type: in vivo, Alopecurus myosuroides
Method in brief: as §1

[3] = test system: surinam grass; assay: Test B pre/postemergence surinam grass; assay type: in vivo, Brachiaria decumbens
Method in brief: as §1

[4] = test system: cocklebur; assay: Test B pre/postemergence cocklebur; assay type: in vivo, Xanthium strumarium
Method in brief: as §1

[5] = test system: corn; assay: Test B pre/postemergence corn; assay type: in vivo, Zea mays
Method in brief: as §1

[6] = test system: crabgrass; assay: Test B pre/postemergence crabgrass; assay type: in vivo, Digitaria sanguinalis
Method in brief: as §1

[7] = test system: morningglory; assay: Test B pre/postemergence morningglory; assay type: in vivo, Ipomoea hederacea
Method in brief: as §1

[8] = test system: pigweed; assay: Test B pre/postemergence pigweed; assay type: in vivo, Amaranthus retroflexus
Method in brief: as §1

[9] = test system: rape; assay: Test B pre/postemergence rape; assay type: in vivo, Brassica napus
Method in brief: as §1

[10] = test system: sugar beet; assay: Test B pre/postemergence sugar beet; assay type: in vivo, Beta vulgaris
Method in brief: as §1

[11] = test system: velvetleaf; assay: Test B pre/postemergence velvetleaf; assay type: in vivo, Abutilon theophrasti
Method in brief: as §1

[12] = test system: wheat; assay: Test B pre/postemergence wheat; assay type: in vivo, Triticum aestivum
Method in brief: as §1

[13] = test system: wild oat; assay: Test B pre/postemergence wild oat; assay type: in vivo, Avena fatua
Method in brief: as §1

[14] = test system: purple nutsedge; assay: Test B pre/postemergence purple nutsedge; assay type: in vivo, Cyperus rotundus
Method in brief: as §1

[15] = test system: smallflower flatsedge; assay: Test B flood test smallflower flatsedge; assay type: in vivo, Cyperus difformis
Method in brief: (§2)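 Plants were grown to the 2-leaf stage before treatment with test chemical, then held in a greenhouse for twelve to sixteen days. Injury was visually rated against untreated controls on a 0–10 scale, where 0 is no effect and 10 is complete control.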

[16] = test system: duck salad; assay: Test B flood test duck salad; assay type: in vivo, Heteranthera limosa
Method in brief: as §2

[17] = Preemergence, Rate 62 g/ha, scale of 0 to 10 where 0 is no effect and 10 is complete control
[18] = Preemergence, Rate 250 g/ha, scale of 0 to 10 where 0 is no effect and 10 is complete control
[19] = Preemergence, Rate 500 g/ha, scale of 0 to 10 where 0 is no effect and 10 is complete control
[20] = Rate 62 g/ha, Postemergence, scale of 0 to 10 where 0 is no effect and 10 is complete control
[21] = Rate 125 g/ha, Postemergence, scale of 0 to 10 where 0 is no effect and 10 is complete control
[22] = Rate 125 g/ha, Preemergence, scale of 0 to 10 where 0 is no effect and 10 is complete control
[23] = Rate 250 g/ha, Postemergence, scale of 0 to 10 where 0 is no effect and 10 is complete control
[24] = Rate 500 g/ha, Postemergence, scale 0 to 10, 0 no effect, 10 complete control
[25] = Pre-emergence, Rate 1000 g/ha, scale 0 to 10 (0 no effect, 10 complete control)
[26] = Rate 62 g/ha, headed Pre-emergence (flood test species), scale 0 to 10 (0 no effect, 10 complete control)
[27] = Rate 125 g/ha, Pre-emergence, flood test species, scale 0 to 10 where 0 is no effect and 10 is complete control
[28] = Rate 250 g/ha, Pre-emergence, flood-test species, scale 0 to 10, 0 is no effect, 10 is complete control
[29] = Rate 500 g/ha, Pre-emergence, flood test species, scale 0 to 10 (0 no effect, 10 complete control)
[30] = Rate 2000 g/ha, Pre-emergence (as headed), scale 0 to 10

CCN(C(=O)n1oc(=O)n(N(C)C)c1=O)C1CCCCC1 [Compound 274]
Bedstraw plant response rating [1, 17]: 0 | Bedstraw plant response rating [1, 18]: 0 | Plant response rating, Bedstraw [1, 19]: 0 | Bedstraw plant response rating [1, 20]: 0 | Bedstraw plant response rating [1, 21]: 0 | Bedstraw plant response rating [1, 22]: 0 | Plant response rating, Bedstraw [1, 23]: 0 | Bedstraw plant response rating [1, 24]: 0 | Blackgrass plant response rating [2, 17]: 0 | Blackgrass plant response rating [2, 18]: 0 | Plant response rating, Blackgrass [2, 19]: 0 | Blackgrass plant response rating [2, 20]: 0 | Blackgrass plant response rating [2, 21]: 0 | Blackgrass plant response rating [2, 22]: 0 | Plant response rating, Blackgrass [2, 23]: 0 | Blackgrass plant response rating [2, 24]: 0 | B. signalgrass plant response rating [3, 17]: 0 | B. signalgrass plant response rating [3, 18]: 0 | Plant response rating, B. signalgrass [3, 19]: 0 | B. signalgrass plant response rating [3, 20]: 0 | B. signalgrass plant response rating [3, 21]: 0 | B. signalgrass plant response rating [3, 22]: 0 | Plant response rating, B. signalgrass [3, 23]: 0 | B. signalgrass plant response rating [3, 24]: 0 | Cocklebur plant response rating [4, 17]: 0 | Cocklebur plant response rating [4, 18]: 0 | Plant response rating, Cocklebur [4, 19]: 0 | Cocklebur plant response rating [4, 20]: 0 | Cocklebur plant response rating [4, 21]: 0 | Cocklebur plant response rating [4, 22]: 0 | Plant response rating, Cocklebur [4, 23]: 0 | Cocklebur plant response rating [4, 24]: 0 | Corn plant response rating [5, 17]: 0 | Corn plant response rating [5, 18]: 0 | Plant response rating, Corn [5, 19]: 0 | Corn plant response rating [5, 20]: 0 | Corn plant response rating [5, 21]: 0 | Corn plant response rating [5, 22]: 0 | Plant response rating, Corn [5, 23]: 0 | Corn plant response rating [5, 24]: 0 | Crabgrass plant response rating [6, 17]: 0 | Crabgrass plant response rating [6, 18]: 1 | Plant response rating, Crabgrass [6, 19]: 5 | Crabgrass plant response rating [6, 21]: 0 | Crabgrass plant response rating [6, 22]: 0 | Plant response rating, Crabgrass [6, 23]: 0 | Crabgrass plant response rating [6, 24]: 0 | Morningglory plant response rating [7, 17]: 0 | Morningglory plant response rating [7, 18]: 0 | Plant response rating, Morningglory [7, 19]: 0 | Morningglory plant response rating [7, 21]: 0 | Morningglory plant response rating [7, 22]: 0 | Plant response rating, Morningglory [7, 23]: 0 | Morningglory plant response rating [7, 24]: 0 | Redroot pigweed plant response rating [8, 17]: 0 | Redroot pigweed plant response rating [8, 18]: 0 | Plant response rating, Redroot pigweed [8, 19]: 0 | Redroot pigweed plant response rating [8, 21]: 0 | Redroot pigweed plant response rating [8, 22]: 0 | Plant response rating, Redroot pigweed [8, 23]: 1 | Redroot pigweed plant response rating [8, 24]: 1 | Rape plant response rating [9, 17]: 0 | Rape plant response rating [9, 18]: 0 | Plant response rating, Rape [9, 19]: 0 | Rape plant response rating [9, 21]: 0 | Rape plant response rating [9, 22]: 0 | Plant response rating, Rape [9, 23]: 0 | Rape plant response rating [9, 24]: 0 | Sugarbeets plant response rating [10, 17]: 0 | Sugarbeets plant response rating [10, 18]: 0 | Plant response rating, Sugarbeets [10, 19]: 0 | Sugarbeets plant response rating [10, 21]: 0 | Sugarbeets plant response rating [10, 22]: 0 | Plant response rating, Sugarbeets [10, 23]: 0 | Sugarbeets plant response rating [10, 24]: 1 | Velvetleaf plant response rating [11, 17]: 0 | Velvetleaf plant response rating [11, 18]: 0 | Plant response rating, Velvetleaf [11, 19]: 0 | Velvetleaf plant response rating [11, 21]: 0 | Velvetleaf plant response rating [11, 22]: 0 | Plant response rating, Velvetleaf [11, 23]: 0 | Velvetleaf plant response rating [11, 24]: 0 | Wheat plant response rating [12, 17]: 0 | Wheat plant response rating [12, 18]: 0 | Plant response rating, Wheat [12, 19]: 0 | Wheat plant response rating [12, 21]: 0 | Wheat plant response rating [12, 22]: 0 | Plant response rating, Wheat [12, 23]: 0 | Wheat plant response rating [12, 24]: 0 | Wild oats plant response rating [13, 17]: 0 | Wild oats plant response rating [13, 18]: 0 | Plant response rating, Wild oats [13, 19]: 0 | Wild oats plant response rating [13, 21]: 0 | Plant response rating, Wild oats [13, 23]: 0 | Wild oats plant response rating [13, 24]: 0 | Nutsedge plant response rating [14, 17]: 0 | Nutsedge plant response rating [14, 18]: 0 | Plant response rating, Nutsedge [14, 19]: 0 | Nutsedge plant response rating [14, 21]: 0 | Nutsedge plant response rating [14, 22]: 0 | Plant response rating, Nutsedge [14, 23]: 0 | Nutsedge plant response rating [14, 24]: 0 | S. Flatsedge plant response rating [15, 25]: 0 | S. Flatsedge plant response rating [15, 26]: 0 | S. Flatsedge plant response rating [15, 27]: 0 | S. Flatsedge plant response rating [15, 28]: 0 | S. Flatsedge plant response rating [15, 29]: 0 | S. Flatsedge plant response rating [15, 30]: 0 | Ducksalad plant response rating [16, 25]: 0 | Ducksalad plant response rating [16, 26]: 0 | Ducksalad plant response rating [16, 27]: 0 | Ducksalad plant response rating [16, 28]: 0 | Ducksalad plant response rating [16, 29]: 0 | Ducksalad plant response rating [16, 30]: 0
